Experimental data reported in patent US20100266681A1, “FATTY ACID ALCOHOLS” (priority 2006, published 2010).

Test system: APOE*3Leiden mice
Assay: Effects on lipid metabolism in vivo, APOE*3Leiden mice on Western-type diet
Conditions: female heterozygous APOE*3Leiden mice, oral admix to Western-type diet, plasma after 4 hour fast, delta = level at t=0 minus level at t=3, doses 565 (Group 2), 497 (Group 3), 1 (Group 4) mg/kg bw/d
Experimental: The invented compositions were tested in an animal model as described below.
Female heterozygous APOE*3Leiden mice was used, and housed during the experiment in macrolon cages (three or four mice per cage), in clean-conventional animal rooms (relative humidity 50-60%, temperature ˜21° C., light cycle 7 am to 7 pm). Individual animals were marked by ear punch-holes. Mice were supplied with food and acidified tap water ad libitum.
The mice received a semi-synthetic modified Western-type diet (WTD) as described by Nishina et al (J Lipid Res 1990; 31: 859), containing cholesterol (0.25% w/w, final concentration) and 15% cacaobutter.
All test compounds were administered orally as admix to the Western-type diet. The lyophilized diet chunks were stored in vacuum bags in the dark in an alarm-secured −20° C. room. The diets on the cages of the mice were changed twice a week.
APOE*3Leiden mice were put on a semi-synthetic Western-type diet (WTD, 15% cocoa butter, 40% sucrose and 0.25% cholesterol; all w/w). After a 4 weeks run-in period low-responder mice were removed from the study and the remaining mice were sub-divided into five groups of 10 mice each, matched for plasma cholesterol, triglycerides, free fatty acids and age (t=0) […]
After 3 weeks of treatment (t=3 weeks) blood samples were taken after 4 hour-fast period and plasma total cholesterol (TC), total triglycerides (TG) were measured. […]

CC(C)OC(=O)C(C)(C)Oc1ccc(C(=O)c2ccc(Cl)cc2)cc1 [Group 4, Fenofibrate]
Delta cholesterol plasma levels (delta TC) after treatment period of 3 weeks, Mean (delta TC): 4.71
Delta triglyceride plasma levels (delta TG) after treatment period of 3 weeks, Mean (delta TG): 1.16
